# Source: US20130053430A1, “MODULATION OF CETP EXPRESSION” (Isis Pharmaceuticals, Inc., priority 2010, published 2013)
# Strand notation (5' to 3'): a small letter for the sugar, then the base; units joined by * are phosphorothioate-linked, units joined directly phosphodiester-linked; [ ] holds rarer units or linkages, { } end groups; capitals alone tell only the bases. e = 2'-O-(2-methoxyethyl) (MOE); [5mC] = 5-methylcytosine; d = 2'-deoxy (DNA)
# Columns and labels:
# human CETP mRNA [1] = experiment: Dose-dependent antisense inhibition of human CETP in SW872 liposarcoma cells (Example 3); assay type: cell-based; details: Lipofectin, ~16 hours (Example 3)
# Description: ISIS 17291 ([…], 6-8-6 MOE (SEQ ID NO: 115)), ISIS 17302 ([…], 6-8-6 MOE (SEQ ID NO: 116)), and ISIS 17305 ([…], 6-8-6 MOE (SEQ ID NO: 117), first disclosed in U.S. Ser. No. 11/031,827 (incorporated by reference herein), were also tested under the same conditions. Cells were plated at a density of 50,000 cells per well in a 24-well plate and transfected using Lipofectin reagent with 50 nM, 150 nM, and 300 nM concentrations of each antisense oligonucleotide. After approximately 16 hours, RNA was isolated from the cells and CETP mRNA levels were measured by quantitative real-time PCR. CETP mRNA levels were normalized to total RNA content, as measured by the house-keeping gene, GAPDH mRNA levels. Results are presented in Table 5 as percent inhibition of CETP, relative to untreated control cells.
# human CETP mRNA [2] = experiment: Antisense inhibition of human CETP mRNA in SW872 liposarcoma cells (Example 1); assay type: cell-based; details: 150 nM antisense oligonucleotide, lipofectin, ~24 hours, relative to untreated control cells
# In short: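 SW872 cells transfected (lipofectin) with 150 nM 5-10-5 MOE gapmer (phosphorothioate, 5-methylcytosine). After about 24 h, CETP mRNA measured by qRT-PCR, normalized to GAPDH; values are % inhibition versus untreated cells.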
# human CETP mRNA [3] = experiment: Antisense inhibition of human CETP mRNA in primary hepatocytes from huCETP transgenic mice (Example 4); assay type: cell-based, mouse; details: cytofectin, ~24 hours
# In short: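 Primary hepatocytes from human CETP transgenic mice, 17,500 cells/well, transfected by cytofectin with 100 nM or 200 nM antisense oligonucleotide. After about 24 h, CETP mRNA quantified by real-time PCR, normalised to GAPDH, as percent inhibition versus untreated cells.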
# human CETP mRNA [4] = experiment: Dose-dependent antisense inhibition of human CETP in SW872 liposarcoma cells (Example 2); assay type: cell-based; details: Lipofectin, ~16 hours (Example 2)
# Description: Cells were plated at a density of 50,000 cells per well in a 24-well plate and transfected using Lipofectin reagent with 50 nM, 150 nM, and 300 nM concentrations of each antisense oligonucleotide. After approximately 16 hours, RNA was isolated from the cells and CETP mRNA levels were measured by quantitative real-time PCR. CETP mRNA levels were normalized to total RNA content, as measured by the house-keeping gene, GAPDH mRNA levels. Results are presented in Table 4 as percent inhibition of CETP, relative to untreated control cells.
Substance,percent inhibition of CETP (human CETP mRNA [1]; 50 nM),percent inhibition of CETP (human CETP mRNA [1]; 150 nM),percent inhibition of CETP (human CETP mRNA [1]; 300 nM),% inhibition (human CETP mRNA [2]),Percent inhibition of human CETP mRNA (human CETP mRNA [3]; 100 nM),Percent inhibition of human CETP mRNA (human CETP mRNA [3]; 200 nM),percent inhibition of CETP (human CETP mRNA [4]; 50 nM),percent inhibition of CETP (human CETP mRNA [4]; 150 nM),percent inhibition of CETP (human CETP mRNA [4]; 300 nM)
"ISIS 17291: GACAAGTGGCTGATCTGGAT, 6-8-6 MOE; first disclosed in U.S. Ser. No. 11/031,827 (antisense; sugars from the 5' end e6 d8 e6, backbone and methylation of C not given here)",35%,0%,0%,–,–,–,–,–,–
"ISIS 17302: GCTTGCCTTCTGCTACAAGC, 6-8-6 MOE; first disclosed in U.S. Ser. No. 11/031,827 (antisense; sugars from the 5' end e6 d8 e6, backbone and methylation of C not given here)",0%,41%,45%,–,–,–,–,–,–
"ISIS 17305: CCAGTGGGCCTTTAGGATAG, 6-8-6 MOE; first disclosed in U.S. Ser. No. 11/031,827 (antisense; sugars from the 5' end e6 d8 e6, backbone and methylation of C not given here)",18%,44%,55%,–,–,–,–,–,–
ISIS 349461: 5-10-5 MOE gapmer ATACTTGACTTGGCCAAGGA (eA*eT*eA*e[5mC]*eT*dT*dG*dA*d[5mC]*dT*dT*dG*dG*d[5mC]*d[5mC]*eA*eA*eG*eG*eA),–,–,–,97%,65%,52%,75%,80%,88%
ISIS 349465: 5-10-5 MOE gapmer GAGACATCAATGGACTTGGC (eG*eA*eG*eA*e[5mC]*dA*dT*d[5mC]*dA*dA*dT*dG*dG*dA*d[5mC]*eT*eT*eG*eG*e[5mC]),–,–,–,87%,50%,66%,96%,87%,96%
ISIS 349483: 5-10-5 MOE gapmer CTCTGAGACATTCTTGTAGA (e[5mC]*eT*e[5mC]*eT*eG*dA*dG*dA*d[5mC]*dA*dT*dT*d[5mC]*dT*dT*eG*eT*eA*eG*eA),–,–,–,85%,77%,63%,100%,98%,85%
ISIS 349490: 5-10-5 MOE gapmer CCTCTTGGAAGATTTCCTGG (e[5mC]*e[5mC]*eT*e[5mC]*eT*dT*dG*dG*dA*dA*dG*dA*dT*dT*dT*e[5mC]*e[5mC]*eT*eG*eG),–,–,–,89%,36%,80%,97%,93%,88%
ISIS 349505: 5-10-5 MOE gapmer CACTACCTCGAGCCGAGACA (e[5mC]*eA*e[5mC]*eT*eA*d[5mC]*d[5mC]*dT*d[5mC]*dG*dA*dG*d[5mC]*d[5mC]*dG*eA*eG*eA*e[5mC]*eA),–,–,–,55%,98%,99%,–,–,–
ISIS 349506: 5-10-5 MOE gapmer CGCCTTTGCTGTTCATGAGG (e[5mC]*eG*e[5mC]*e[5mC]*eT*dT*dT*dG*d[5mC]*dT*dG*dT*dT*d[5mC]*dA*eT*eG*eA*eG*eG),–,–,–,92%,95%,99%,93%,86%,93%
ISIS 349507: 5-10-5 MOE gapmer TGATGATGTCGAAGAGGCTC (eT*eG*eA*eT*eG*dA*dT*dG*dT*d[5mC]*dG*dA*dA*dG*dA*eG*eG*e[5mC]*eT*e[5mC]),–,–,–,19%,71%,73%,–,–,–
ISIS 349508: 5-10-5 MOE gapmer TCTCGAGTGATAATCTCAGG (eT*e[5mC]*eT*e[5mC]*eG*dA*dG*dT*dG*dA*dT*dA*dA*dT*d[5mC]*eT*e[5mC]*eA*eG*eG),–,–,–,24%,76%,86%,–,–,–
ISIS 349509: 5-10-5 MOE gapmer CATCTGCAGCAGCAGGAAGC (e[5mC]*eA*eT*e[5mC]*eT*dG*d[5mC]*dA*dG*d[5mC]*dA*dG*d[5mC]*dA*dG*eG*eA*eA*eG*e[5mC]),–,–,–,70%,22%,83%,–,–,–
ISIS 349510: 5-10-5 MOE gapmer TCTAGCTCAAGCTCTGGAGG (eT*e[5mC]*eT*eA*eG*d[5mC]*dT*d[5mC]*dA*dA*dG*d[5mC]*dT*d[5mC]*dT*eG*eG*eA*eG*eG),–,–,–,64%,65%,88%,–,–,–
ISIS 349513: 5-10-5 MOE gapmer TCCAGCTGTGAGCCTGGTGC (eT*e[5mC]*e[5mC]*eA*eG*d[5mC]*dT*dG*dT*dG*dA*dG*d[5mC]*d[5mC]*dT*eG*eG*eT*eG*e[5mC]),87%,89%,91%,83%,73%,92%,97%,100%,95%
ISIS 349514: 5-10-5 MOE gapmer ACGCTGGAGGAGACACCAGG (eA*e[5mC]*eG*e[5mC]*eT*dG*dG*dA*dG*dG*dA*dG*dA*d[5mC]*dA*e[5mC]*e[5mC]*eA*eG*eG),–,–,–,71%,84%,92%,–,–,–
ISIS 349516: 5-10-5 MOE gapmer CATCTCCGTACTCCTAACCC (e[5mC]*eA*eT*e[5mC]*eT*d[5mC]*d[5mC]*dG*dT*dA*d[5mC]*dT*d[5mC]*d[5mC]*dT*eA*eA*e[5mC]*e[5mC]*e[5mC]),–,–,–,65%,78%,86%,–,–,–
